Assay results as given in patent US8058311B2, “Imaging 18F or 11C-labelled alkylthiophenyl guanidines” (Hammersmith Imanet Limited, priority 2005, dated 2011).

Test: Biodistribution: radioactivity in rat brain tissue after intravenous injection
Format: in vivo
Conditions: for signal relative to cerebellum in hippocampus and cortex: IV injection; for radioactivity in blood / radioactivity in cerebellum / radioactivity in entorhinal cortex / radioactivity in hippocampus / radioactivity in hypothalamus / radioactivity in inferior colliculi / radioactivity in occipital cortex / radioactivity in olfactory tubercles / radioactivity in plasma (shown for comparison) / radioactivity in pons with medulla / radioactivity in prefrontal cortex / radioactivity in somatosensory cortex / radioactivity in striata / radioactivity in superior colliculi / radioactivity in thalamus: intravenous injection
Procedure: N-(2-Chloro-5-(2-[^18F]fluoro-ethylthio))-phenyl-N′-(3-methylthio)-phenyl-N′-methylguanidine was prepared according to Example 4 (synthesis formulation ˜3% ethanol in 0.9% w/v saline solution) with a radiochemical purity of ˜99% and, at time of injection, the specific activity ranged from 4-16 GBq/nmol^−1. Biodistribution and blood data were from 11 adult male Sprague-Dawley rats (body weight range, 269 to 329 g; mean±S.E.=300±18 g). N-(2-Chloro-5-(2-[^18F]fluoro-ethylthio))-phenyl-N′-(3-methylthio)-phenyl-N′-methylguanidine was injected directly into the tail vein of each rat whilst under isoflurane anaesthesia. Each animal was then allowed to recover from anaesthesia. At designated times after injection, rats were sacrificed by cervical dislocation under anaesthesia and brain and body tissues were rapidly sampled.
The data were acquired using two syntheses. Rats were given an average of 86 MBq (85.3 MBq for first experimental day and 87.3 MBq for the second experimental day), in a volume of 0.20 ml (synthesis formulation ˜3% alcohol), via direct intravenous injection through the tail vein. The mass of co-injected N-(2-Chloro-5-(2-[^18F]fluoro-ethylthio))-phenyl-N′-(3-methylthio)-phenyl-N′-methylguanidine ranged from 0.7-2.9 nmol.kg^−1. Details of the methodology, together with processing and counting of the samples can be found in Hume et al., Nucl. Med. Biol. (1991) 18: 339-351. Data were normalised for injected radioactivity and body weight, giving: ‘uptake units’=(cpm.g^−1 wet weight tissue)·(injected cpm.g^−1 body weight)^−1 Results
Radioactivity concentration data are additionally collated in Tables 1 (peripheral tissue) and 2 (brain). As metabolite studies were not carried out, the proportion of the total radioactivity reflecting label associated with parent N-(2-Chloro-5-(2-[^18F]fluoro-ethylthio))-phenyl-N′-(3-methylthio)-phenyl-N′-methylguanidine is not known. Note, Blood and plasma samples were collected post-mortem from the heart ventricle.

initial uptake in all brain tissues (2 minutes after IV injection): ~4 uptake units
activity in all brain tissues (90 minutes after radioligand injection): ~0.4 uptake units
signal relative to cerebellum in hippocampus and cortex (by 90 minutes): 1
signal relative to cerebellum in hippocampus and cortex (reached over the first 40 minutes): 1.3
signal relative to cerebellum in hippocampus and cortex (start of the first 40 minutes): ~0.8
rat brain uptake of radioactivity (earliest sample time (2 min) after IV injection): high uptake of radioactivity
radioactivity in blood (2 min, n = 1): 0.288 uptake units
radioactivity in cerebellum (2 min, n = 1): 4.204 uptake units
radioactivity in entorhinal cortex (2 min, n = 1): 2.766 uptake units
radioactivity in hippocampus (2 min, n = 1): 2.864 uptake units
radioactivity in hypothalamus (2 min, n = 1): 3.397 uptake units
radioactivity in inferior colliculi (2 min, n = 1): 6.716 uptake units
radioactivity in occipital cortex (2 min, n = 1): 4.008 uptake units
radioactivity in olfactory tubercles (2 min, n = 1): 2.826 uptake units
radioactivity in plasma (shown for comparison) (2 min, n = 1): 0.264 uptake units
radioactivity in pons with medulla (2 min, n = 1): 3.678 uptake units
radioactivity in prefrontal cortex (2 min, n = 1): 3.808 uptake units
radioactivity in somatosensory cortex (2 min, n = 1): 3.531 uptake units
radioactivity in striata (2 min, n = 1): 2.306 uptake units
radioactivity in superior colliculi (2 min, n = 1): 4.977 uptake units
radioactivity in thalamus (2 min, n = 1): 4.460 uptake units
radioactivity in blood (5 min, n = 1): 0.261 uptake units
radioactivity in cerebellum (5 min, n = 1): 2.761 uptake units
radioactivity in entorhinal cortex (5 min, n = 1): 2.442 uptake units
radioactivity in hippocampus (5 min, n = 1): 2.250 uptake units
radioactivity in hypothalamus (5 min, n = 1): 2.443 uptake units
radioactivity in inferior colliculi (5 min, n = 1): 3.292 uptake units
radioactivity in occipital cortex (5 min, n = 1): 2.883 uptake units
radioactivity in olfactory tubercles (5 min, n = 1): 3.062 uptake units
radioactivity in plasma (shown for comparison) (5 min, n = 1): 0.135 uptake units
radioactivity in pons with medulla (5 min, n = 1): 2.877 uptake units
radioactivity in prefrontal cortex (5 min, n = 1): 3.099 uptake units
radioactivity in somatosensory cortex (5 min, n = 1): 2.772 uptake units
radioactivity in striata (5 min, n = 1): 1.817 uptake units
radioactivity in superior colliculi (5 min, n = 1): 3.541 uptake units
radioactivity in thalamus (5 min, n = 1): 2.566 uptake units
radioactivity in blood (10 min, n = 2): 0.146 uptake units
radioactivity in cerebellum (10 min, n = 2): 1.451 uptake units
radioactivity in entorhinal cortex (10 min, n = 2): 1.404 uptake units
radioactivity in hippocampus (10 min, n = 2): 1.396 uptake units
radioactivity in hypothalamus (10 min, n = 2): 1.275 uptake units
radioactivity in inferior colliculi (10 min, n = 2): 1.539 uptake units
radioactivity in occipital cortex (10 min, n = 2): 1.651 uptake units
radioactivity in olfactory tubercles (10 min, n = 2): 1.300 uptake units
radioactivity in plasma (shown for comparison) (10 min, n = 2): 0.102 uptake units
radioactivity in pons with medulla (10 min, n = 2): 1.530 uptake units
radioactivity in prefrontal cortex (10 min, n = 2): 1.649 uptake units
radioactivity in somatosensory cortex (10 min, n = 2): 1.588 uptake units
radioactivity in striata (10 min, n = 2): 1.433 uptake units
radioactivity in superior colliculi (10 min, n = 2): 1.677 uptake units
radioactivity in thalamus (10 min, n = 2): 1.353 uptake units
radioactivity in blood (30 min, n = 3, mean ± SD): 0.269 ± 0.042 uptake units
radioactivity in cerebellum (30 min, n = 3, mean ± SD): 0.919 ± 0.110 uptake units
radioactivity in entorhinal cortex (30 min, n = 3, mean ± SD): 0.941 ± 0.086 uptake units
radioactivity in hippocampus (30 min, n = 3, mean ± SD): 1.088 ± 0.142 uptake units
radioactivity in hypothalamus (30 min, n = 3, mean ± SD): 1.076 ± 0.250 uptake units
radioactivity in inferior colliculi (30 min, n = 3, mean ± SD): 0.841 ± 0.084 uptake units
radioactivity in occipital cortex (30 min, n = 3, mean ± SD): 1.041 ± 0.067 uptake units
radioactivity in olfactory tubercles (30 min, n = 3, mean ± SD): 0.981 ± 0.235 uptake units
radioactivity in plasma (shown for comparison) (30 min, n = 3, mean ± SD): 0.229 ± 0.047 uptake units
radioactivity in pons with medulla (30 min, n = 3, mean ± SD): 1.110 ± 0.129 uptake units
radioactivity in prefrontal cortex (30 min, n = 3, mean ± SD): 1.168 ± 0.042 uptake units
radioactivity in somatosensory cortex (30 min, n = 3, mean ± SD): 1.037 ± 0.103 uptake units
radioactivity in striata (30 min, n = 3, mean ± SD): 1.101 ± 0.202 uptake units
radioactivity in superior colliculi (30 min, n = 3, mean ± SD): 1.086 ± 0.286 uptake units
radioactivity in thalamus (30 min, n = 3, mean ± SD): 1.415 ± 0.203 uptake units
radioactivity in blood (60 min, n = 3, mean ± SD): 0.229 ± 0.068 uptake units
radioactivity in cerebellum (60 min, n = 3, mean ± SD): 0.454 ± 0.082 uptake units
radioactivity in entorhinal cortex (60 min, n = 3, mean ± SD): 0.502 ± 0.095 uptake units
radioactivity in hippocampus (60 min, n = 3, mean ± SD): 0.548 ± 0.119 uptake units
radioactivity in hypothalamus (60 min, n = 3, mean ± SD): 0.533 ± 0.115 uptake units
radioactivity in inferior colliculi (60 min, n = 3, mean ± SD): 0.456 ± 0.079 uptake units
radioactivity in occipital cortex (60 min, n = 3, mean ± SD): 0.541 ± 0.124 uptake units
radioactivity in olfactory tubercles (60 min, n = 3, mean ± SD): 0.504 ± 0.062 uptake units
radioactivity in plasma (shown for comparison) (60 min, n = 3, mean ± SD): 0.222 ± 0.055 uptake units
radioactivity in pons with medulla (60 min, n = 3, mean ± SD): 0.551 ± 0.143 uptake units
radioactivity in prefrontal cortex (60 min, n = 3, mean ± SD): 0.519 ± 0.105 uptake units
radioactivity in somatosensory cortex (60 min, n = 3, mean ± SD): 0.517 ± 0.107 uptake units
radioactivity in striata (60 min, n = 3, mean ± SD): 0.481 ± 0.136 uptake units
radioactivity in superior colliculi (60 min, n = 3, mean ± SD): 0.486 ± 0.101 uptake units
radioactivity in thalamus (60 min, n = 3, mean ± SD): 0.553 ± 0.108 uptake units
radioactivity in blood (90 min, n = 1): 0.180 uptake units
radioactivity in cerebellum (90 min, n = 1): 0.366 uptake units
radioactivity in entorhinal cortex (90 min, n = 1): 0.383 uptake units
radioactivity in hippocampus (90 min, n = 1): 0.391 uptake units
radioactivity in hypothalamus (90 min, n = 1): 0.466 uptake units
radioactivity in inferior colliculi (90 min, n = 1): 0.306 uptake units
radioactivity in occipital cortex (90 min, n = 1): 0.423 uptake units
radioactivity in olfactory tubercles (90 min, n = 1): 0.504 uptake units
radioactivity in plasma (shown for comparison) (90 min, n = 1): 0.163 uptake units
radioactivity in pons with medulla (90 min, n = 1): 0.406 uptake units
radioactivity in prefrontal cortex (90 min, n = 1): 0.414 uptake units
radioactivity in somatosensory cortex (90 min, n = 1): 0.376 uptake units
radioactivity in striata (90 min, n = 1): 0.485 uptake units
radioactivity in superior colliculi (90 min, n = 1): 0.386 uptake units
radioactivity in thalamus (90 min, n = 1): 0.551 uptake units
Compound: CSc1cccc(N(C)C(=N)Nc2cc(SCC[18F])ccc2Cl)c1 [N-(2-Chloro-5-(2-[^18F]fluoro-ethylthio))-phenyl-N′-(3-methylthio)-phenyl-N′-methylguanidine]
